Assay [1] deals with DU145 cells. Nature of the assay: L-lactate production. The class given is cell-based, human. The note with it: 2 mM 2-DG 24 h; 2 μM buforin IIb 12 h; combination: 2-DG pretreatment 12 h then buforin IIb 12 h; lactate in medium. The method, then: (§1) Cells were seeded at approximately 3 × 10^5 cells/mL in 6-well plates and treated with 2-DG (2 mM) alone for 24 h and buforin IIb alone (2 μM) or both for 12 h. After centrifugation, the culture medium and cells were collected to estimate the L-lactate and ATP content using the ATP content assay kit (Solarbio, Beijing, China) and L-lactate assay kit (Jiancheng Bioengineering, Nanjing, China) according to the manufacturer’s protocol. […] The collected cells were subjected to ultrasonic disruption and centrifuged at 8000× g for 10 min at 4 °C to collect the supernatant for intracellular ATP detection. Creatine kinase catalyzes the production of phosphocreatine from creatine and ATP. The level of ATP was determined by detecting the phosphocreatine content though the colorimetric method of phosphomolybdic acid at 700 nm. Six replicates were performed for each group, and the experiments were repeated three times to confirm the results.

For assay [2], the system named is DU145 cells. Nature of the assay: Intracellular ATP level. The class given is cell-based, human. The note with it: Homo sapiens, DU-145, 2 mM 2-DG 24 h, 2 μM buforin IIb 12 h, read-out: ATP levels, % of control levels. The method, then: as §1
In assay [3] the test system is DU145 cells. Nature of the assay: Mitochondrial membrane potential (JC-1, flow cytometry). The class given is cell-based, human. The protocol:
The JC-1 Assay Kit was used to measure changes in mitochondrial membrane potential. Briefly, cells (5 × 10^5 cells/mL) were seeded into 6-well plates and treated with 2-DG (2 mM) for 12 h, then treated with or without buforin IIb (2 μM) for 12 h. DU145 cells were collected, washed in PBS, and incubated with 10 μg/mL JC-1 for 30 min. The cells were then collected by centrifugation and analyzed by flow cytometry. The red fluorescence indicated JC-1 aggregates, whereas green fluorescence indicated JC-1 monomers. Aggregated JC-1 (red fluorescence) indicates a high membrane potential, whereas monomer JC-1 (green fluorescence) indicates a membrane collapse.

The subject of assay [4] is DU145 cells. Nature of the assay: ROS assay (H2DCFDA, flow cytometry). It counts as cell-based, human. The note with it: 2 mM 2-DG 12 h, with or without 2 μM buforin IIb 6 h; combination compared with 2 μM buforin alone, p < 0.001. The method, then:
Intracellular ROS level was measured by detecting the fluorescence intensity of the peroxide sensitive fluorescent probe H2DCFDA. Briefly, DU145 cells (1 × 10^5 cells/mL) were seeded into 24-well plates and treated with 2-DG (2 mM) for 12 h, then treated with or without buforin IIb (2 μM) for 6 h, followed by incubation with 10 μM H2DCFDA for 30 min in the dark. The fluorescence intensity was measured at 488 nm by flow cytometry to evaluate the production of ROS.

In a further assay the test system is DU145 xenograft tumors. As to the kind of experiment: DU145 xenograft tumor experiment. The class given is in vivo, BALB/c nude mice. To be noted: buforin IIb 5 mg/kg tail vein, 2-DG 400 mg/kg oral gavage, days 1, 2, 3, 6, 9; tumor weight on day 12 vs PBS; n = 5 per group. From the text:
Male BALB/c nude mice (4-6 weeks old) were obtained from the Model Animal Research Center of Nanjing University. All of the animal experiments were approved by the Institutional Animal Care and Use Committee (IACUC) of the Nanjing Normal University and Jiangsu Association for Laboratory Animal Science. BALB/c nude mice were subcutaneously injected with 3 × 10^6 DU145 cells in the right axillary region. When the tumor volume reached 75 mm^3, nude mice were randomly divided into the following four groups (n = 5 per group): PBS, buforin IIb (5 mg/kg), 2-DG (400 mg/kg), and combination group (5 mg/kg buforin IIb + 400 mg/kg 2-DG). Buforin IIb was injected through the tail vein of mice and 2-DG was administered via oral gavage on days 1, 2, 3, 6, and 9. Body weight and tumor volume were measured three times a week. Mice were sacrificed by isoflurane inhalation followed by cervical dislocation. The tumors were excised and assessed. Tumor volume was calculated using the formula V = ab^2/2, where 'a' and 'b' are the tumor dimensions at the longest and widest points, respectively. On day 12, tumor tissues were collected and weighed. […] PCNA and TUNEL positive cells were quantified by measuring pixels in 10 consecutive fields at 40× magnification. Positive cells were scored manually.

SMILES strings stand for the structures.

Regarding `O=CC[C@@H](O)[C@H](O)[C@H](O)CO` [2-DG, 2-Deoxy-D-glucose], the “lactate production, % of that in the control” value in the assay with DU145 cells [1] is listed as “approximately 60%”. For the same molecule, the activity at 2000 µM with DU145 cells [2] was found to be 70%. Also, the “effect on Δψm (JC-1 green/red fluorescence ratio, words)” value with DU145 cells [3] (2 mM 2-DG, 2 μM buforin IIb 12 h) was “no effect on Δψm”. Further, the “effect on mitochondrial Δψm and ROS production” value with DU145 cells [3] (2-DG (2 mM) alone) was “no effect on mitochondrial Δψm and ROS production”. For the same molecule, the “ROS, H2DCFDA fluorescence intensity” value with DU145 cells [4] is reported as “no effect on H2DCFDA fluorescence intensity”. The “tumor growth inhibition rate” value in the assay on DU145 xenograft tumors stood at 39.53%.

For the origin of these results see article PMC7730206, “2-Deoxy-D-glucose Promotes Buforin IIb-Induced Cytotoxicity in Prostate Cancer DU145 Cells and Xenograft Tumors” (Molecules, 2020).
